Data published in patent US7371225B2, “Method for convection enhanced delivery of therapeutic agents” (The United States of America as represented by the …, priority 2002, dated 2008).
Like-named read-outs stand apart in the source and are kept apart here.

What was measured:
cerebral white matter [1] = test: CED of iopamidol in cerebral white matter with real-time CT-imaging; assay type: in vivo, primates (Macaca mulatta)
Procedure: (§1) Four primates (Macaca mulatta) underwent CED of various volumes (total volume of 90 to 150 μl) of iopamidol (777 Da) in the cerebral white matter combined with CT-imaging during and after infusion (up to 5 days post-infusion), as well as quantitative autoradiography (QAR). Clinical observation (≦20 weeks) and histopathology were used to evaluate safety and toxicity.

cerebral white matter [2] = conditions: in vivo
Procedure: as §1

[3] = tested on: sympathetic ganglia explants; conditions: cited from earlier work
[4] = in vivo; cited from earlier work
putamen = tested on: putamen; set-up: species or system rhesus monkeys; conditions: rhesus monkey, in vivo
Procedure: Anesthesia was induced with ketamine (10 mg/kg), xylazine (0.5 mg/kg), and thiopental sodium (1 mg/kg). The animals were secured in a monkey stereotactic frame (Kopf Instruments, Tujunga, Calif.). A Hamilton 32-gauge metal blunt tip needle connected to a 250 μl Hamilton syringe (Thompson Instruments, Chantilly, Va.) was stereotactically inserted in the center of the right putamen (anteroposterior 15.5 mm, mediolateral 12 mm and dorsoventral 24.5 mm relative to the tympanic canals and the mid-sagittal sinus)^15. After a delay of 90 minutes, the infusion was begun at 1.0 μl/min.
For CT, 130 μl, 200 μl and 235 μl of the tracer IPA-BSA/^14C-BSA mixture (35-55 Iopanoic Acid/BSA, 61.3-80.4 mg/ml ^14C-BSA) was infused. […]
CT and MRI images were analyzed in the MEDx software package (Sensor Systems, Inc., Sterling, Va.) running on a Sun workstation (Sun Microsystems, Inc., Palo Alto, Calif.). […] These were measured by volume segmentation using two different thresholds. Vd(1) was calculated as the volumes of distribution from CT and MRI containing at least 10% of the total increase in signal intensity due to the addition of contrast agent. A rectangular region of interest (ROI) over the infusion area was defined and in the corresponding site in the contralateral hemisphere, and the perfused maximal signal intensity (peak) and the unperfused maximal signal intensity (background) was measured. […]

## C[C@H](O)C(=O)Nc1c(I)c(C(=O)NC(CO)CO)c(I)c(C(=O)NC(CO)CO)c1I [iopamidol]
Cerebral white matter [1]; CT-imaging
  Distribution of infusate identifiable post-infusion up to: up to 72 hours
  Homogeneity of distribution of infusate: homogeneous
Cerebral white matter [1]; real-time CT-imaging, total volume 90 to 150 μl
  Overall Vd:Vi ratio, mean±S.D.: 4.1±0.7
Cerebral white matter [2]
  Clinical or histopathologic evidence of toxicity: None of the animals had clinical or histopathologic evidence of toxicity

## CCC(Cc1c(I)cc(I)c(N)c1I)C(=O)O (centres unmarked) [iopanoic acid]
[3]; 0.01 mM
  Toxicity in tissue culture: No toxicity
[4]
  Neurotoxicity in the clinical setting: not to be neurotoxic
  Side effects when used for imaging the gallbladder: rare side effects (acute renal insufficiency, acute thrombocytompenia)

## CCC(Cc1c(I)cc(I)c(N)c1I)C(=O)[O-].[Na+] (centres unmarked) [sodium iopanoate]
[3]; 0.1 mM
  Toxicity in tissue culture: vacuolization of fibroblasts
[3]; 1 mM
  Toxicity in tissue culture: immediate death of sympathetic ganglia explants

## IPA-BSA: Iopanoic acid conjugated to BSA, surrogate tracer for CT
putamen
  Mean Vd(1): 3.44±0.74
  Mean Vd(2): 4.51±1.31
